Data as given in patent US9145354B2, “Pharmaceutical compounds” (priority 2011, dated 2015).
Where two headings read alike, the source gives them in different places.

Columns and labels:
[1] = test system: HCV subgenomic replicon in Huh-7 cells; assay: Replicon Assay (Example B), luciferase readout EC50; type: cell-based; settings: Hepatitis C virus, Huh-7, replicon assay, luciferase readout; upper value of the cell pair; read-out: Assay B EC50
Experimental: The activities of compounds of the invention against HCV in a cellular environment were analysed using a replicon assay as described below.
(§1) Thus, Huh-7 cells persistently infected with an HCV-RNA construct (Bartenschlager, R. Hepatitis C replicons: potential role for drug development. Nature Rev. Drug Discov. 1, 911-916 (2002)) comprising: 5′ and 3′ non-translated regions (NTR); the non-structural genes NS3 to NS5b; as well as the G418 drug resistance gene, neomycin, (for selection of cells carrying HCV replicon RNA) fused to the firefly Luciferase reporter gene (pFKI3889Iuc-ubi-neo/NS3-3′/ET) were used to determine the cell based antiviral activity of compounds using luciferase activity as an indirect readout of HCV RNA load. In this assay […] huh-7 cells persistently infected with the HCV subgenomic replicon construct above were plated/well in a 96 well tissue culture plate. The cells were allowed to attach overnight in DMEM medium supplemented with 10% FBS 1% NEAA, and 250 μg/ml gentamicin. The following day the medium was replaced with 200 μl/well of fresh medium as described above lacking gentamicin. Semilog dilutions of compounds in medium were then added to triplicate wells (non-edge) of the cultured cells to give a 0.1% DMSO final concentration. Plates were then incubated at 37° C. in an atmosphere of 5% CO2 and air for 72 h. […] The plate was then read at 535 nm (excitation) and 590 nm (emission) on a SpectraMax Gemini reader (Molecular Devices) to determine the number of viable cells by measuring the conversion of rezasurin (Alamar blue) to resorufin in response to mitochondrial activity. In order to determine the antiviral effect of these compounds EC50 values were determined by measuring the luciferase activity of the cells. Alamar blue solution was removed from the wells and replaced with 100 μl/well of medium along with 100 μl/well of Bright-Glo reagent and incubated at room temperature for 5 minutes before transferring 100 μl/well to a white bottom 96 well plate to read in a luminometer as described in the Bright-Glo Luciferase Assay System protocol (promega).

[2] = Replicon Assay (Example B), Alamar Blue cytotoxicity CC50; type: cell-based; settings: human, lower value of the cell pair
Text: as §1

[3] = target: full length NS3/4a (Hepatitis C virus genotype 1b (isolate BK) (HCV), UniProt P26663); assay: NS3 Protease Assay (Example A), FRET-based; type: biochemical
Procedure, shortened: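 Full-length NS3/4a, made in-house, with an NS4A/B-derived peptide substrate carrying QXL520 quencher and 5-FAMsp fluorophore. Buffer 50 mM Tris pH8, 20 mM DTT, 1% CHAPS, 10% glycerol, 5% DMSO. Fluorescence followed 30 min at room temperature; IC50 from initial rates of replicate curves.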

[4] = HCV NS3 protease assay, full length NS3/4a, read-out: Assay A IC50 (μM) average
[5] = read-out: IC50 against the protease activity of the full length NS3/4a

Chain of full length NS3/4a (P26663 1027-1657): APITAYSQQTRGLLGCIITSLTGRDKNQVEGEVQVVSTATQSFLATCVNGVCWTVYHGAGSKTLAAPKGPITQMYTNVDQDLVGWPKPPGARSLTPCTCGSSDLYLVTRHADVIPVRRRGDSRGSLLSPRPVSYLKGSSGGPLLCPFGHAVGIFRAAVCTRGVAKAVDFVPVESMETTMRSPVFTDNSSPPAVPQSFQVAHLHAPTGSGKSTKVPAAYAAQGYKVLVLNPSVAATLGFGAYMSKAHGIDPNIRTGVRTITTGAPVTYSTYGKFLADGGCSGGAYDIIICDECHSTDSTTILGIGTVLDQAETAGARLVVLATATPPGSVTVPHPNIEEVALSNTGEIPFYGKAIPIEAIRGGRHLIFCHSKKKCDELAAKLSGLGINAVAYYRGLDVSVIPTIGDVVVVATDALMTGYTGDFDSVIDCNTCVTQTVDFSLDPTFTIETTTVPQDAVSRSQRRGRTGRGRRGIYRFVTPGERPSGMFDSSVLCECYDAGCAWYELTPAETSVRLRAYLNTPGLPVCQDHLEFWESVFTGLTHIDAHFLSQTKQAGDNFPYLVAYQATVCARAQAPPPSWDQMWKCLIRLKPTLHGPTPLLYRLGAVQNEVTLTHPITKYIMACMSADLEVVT

Compound | EC50 [1] [nM] | CC50 at 72 h [2] [nM] | IC50 [3, 4] [µM] | IC50 [3, 5] [µM]
C[C@@H](CC(N)=O)N[C@@H](c1ccc(Cl)c(C(=O)c2ccncc2)c1F)C1CC1 [Example 134, (3S)-3-{[(R)-{4-chloro-2-fluoro-3-[(pyridin-4-yl)carbonyl]phenyl}-(cyclopropyl)methyl]-amino}butanamide] | 52 | > 3000 | 0.085 | 
CC[C@@H](N[C@@H](C)CC(N)=O)c1ccc(Cl)c(C(=O)c2ccc(-n3cccn3)nc2)c1F [Example 139, (3S)-3-{[(1R)-1-(4-chloro-2-fluoro-3-{[6-(1H-pyrazol-1-yl)pyridin-3-yl]carbonyl}phenyl)-propyl]amino}-butanamide] | 420 | > 3000 | 0.33 | < 1
CC[C@@H](N[C@@H](C)CC(N)=O)c1ccc(Cl)c(C(=O)c2cc[n+]([O-])cc2)c1F [Example 142, (S)-3-{(R)-1-[4-Chloro-2-fluoro-3-(1-oxy-pyridine-4-carbonyl)-phenyl]-propylamino}-butyramide] | > 3000 | > 3000 | 0.3 | < 1
CC[C@@H](N[C@@H](C)CC(N)=O)c1ccc(Cl)c(C(=O)c2ccc(C(=O)O)cc2)c1F [Example 144, 4-({3-[(1R)-1-{[(2S)-1-Carbamoylpropan-2-yl]amino}propyl]-6-chloro-2-fluorophenyl}carbonyl)-benzoic acid] | > 3000 | > 3000 | 1.2 | 1 to 5
CC[C@@H](N[C@@H](C)CC(N)=O)c1ccc(Cl)c(C(=O)c2cncc(N)c2)c1F [Example 145, (3S)-3-{[(1R)-1-{3-[(5-aminopyridin-3-yl)carbonyl]-4-chloro-2-fluorophenyl}propyl]-amino}butanamide] | 1000 | > 10000 | 0.84 | 
CC[C@@H](N[C@@H](C)CC(N)=O)c1ccc(Cl)c(C(=O)c2ccc(=O)[nH]c2)c1F [Example 147, (3S)-3-{[(1R)-1-{4-chloro-2-fluoro-3-[(6-oxo-1,6-dihydropyridin-3-yl)carbonyl]-phenyl}propyl]amino}-butanamide] | 2100 | > 10000 | 0.39 | 
CC[C@@H](N[C@@H](C)CC(N)=O)c1ccc(Cl)c(C(=O)c2ccc(N)cn2)c1F [Example 149, (3S)-3-{[(1R)-1-{3-[(5-aminopyridin-2-yl)carbonyl]-4-chloro-2-fluorophenyl}propyl]amino}-butanamide] | 39 | > 10000 | 0.2 | 
CC[C@@H](N[C@@H](C)CC(N)=O)c1ccc(C)c(C(=O)c2ccccc2)c1F [Example 150, (3S)-3-{[(1R)-1-(3-benzoyl-2-fluoro-4-methylphenyl)propyl]-amino}butanamide] | 310 | > 10000 | 0.068 | 
CC[C@@H](N[C@@H](C)CC(N)=O)c1ccc(OC)c(C(=O)c2ccccc2)c1F [Example 152, (3S)-3-{[(1R)-1-(3-benzoyl-2-fluoro-4-methoxyphenyl)propyl]-amino}butanamide] | 66 | > 10000 | 0.051 | 
C[C@@H](CC(N)=O)N[C@@H](c1ccc(Cl)c(C(=O)c2ccc(N)nc2)c1F)C1CC1 [Example 154, (3S)-3-{[(R)-{3-[(6-aminopyridin-3-yl)carbonyl]-4-chloro-2-fluorophenyl}(cyclo-propyl)methyl]amino}-butanamide] | 37 | > 10000 | 0.2 | 
CC[C@@H](N[C@@H](C)CC(N)=O)c1ccc(F)c(C(=O)c2ccccc2)c1F [Example 157, (3S)-3-{[(1R)-1-(3-benzoyl-2,4-difluorophenyl)propyl]-amino}butanamide] | 610 | > 10000 | 0.045 | 
CC[C@@H](N[C@@H](C)CC(N)=O)c1ccc(Cl)c(C(=O)c2ccc(-n3cc(CO)cn3)nc2)c1F [Example 159, (3S)-3-{[(1R)-1-[4-chloro-2-fluoro-3-({6-[4-(hydroxymethyl)-1H-pyrazol-1-yl]pyridin-3-yl}carbonyl)phenyl]-propyl]amino}-butanamide] | 100 | > 10000 | 0.24 | 
CC[C@@H](NCCC(N)=O)c1ccc(Cl)c(C(=O)c2cccnc2)c1F [Example 162, 3-{[(1R)-1-{4-Chloro-2-fluoro-3-[(pyridin-3-yl)carbonyl]phenyl}propyl]amino}propanamide] | > 3000 | > 3000 | 0.59 | < 1
CC[C@@H](NCCC(N)=O)c1ccc(Cl)c(C(=O)c2ccccc2)c1F [Example 167, 3-{[(1R)-1-(3-Benzoyl-4-chloro-2-fluorophenyl)propyl]amino}-propanamide] | 630 | > 3000 | 0.098 | < 1
CC[C@@H](NCC1(C(N)=O)CC1)c1ccc(Cl)c(C(=O)c2cccnc2)c1F [Example 168, 1-({[(1R)-1-{4-Chloro-2-fluoro-3-[(pyridin-3-yl)carbonyl]phenyl}propyl]amino}methyl)-cyclopropane-1-carboxamide] | > 3000 | > 3000 | 0.55 | < 1
CC[C@H](NCCO)c1ccc(Cl)c(C(=O)c2ccccc2)c1F [Example 171, 2-{[(1S)-1-(3-benzoyl-4-chloro-2-fluorophenyl)propyl]-amino}ethan-1-ol] | > 3000 | > 3000 | 0.056 | < 1
CC[C@@H](NCCO)c1ccc(Cl)c(C(=O)c2ccccc2)c1F [Example 176, 2-{[(1R)-1-(3-benzoyl-4-chloro-2-fluorophenyl)propyl]amino}ethan-1-ol] | > 3000 | > 3000 | 0.29 | 
CC[C@H](N[C@@H](C)CO)c1ccc(Cl)c(C(=O)c2ccc(N)nc2)c1F [Example 177, (2S)-2-{[(1S)-1-{3-[(6-aminopyridin-3-yl)carbonyl]-4-chloro-2-fluorophenyl}propyl]amino}propan-1-ol] | > 3000 | > 3000 | 0.18 | 
CC[C@H](N[C@H](C)CO)c1ccc(Cl)c(C(=O)c2ccc(N)nc2)c1F [Example 178, (2R)-2-{[(1S)-1-{3-[(6-aminopyridin-3-yl)carbonyl]-4-chloro-2-fluorophenyl}propyl]-amino}propan-1-ol] | 250 | > 3000 | 0.088 | 
CCC(NC(C)(C)CO)c1ccc(Cl)c(C(=O)c2ccccc2)c1F (stereo not shown) [Example 179, 2-{[1-(3-benzoyl-4-chloro-2-fluorophenyl)-propyl]amino}-2-methylpropan-1-ol] | 300 | > 3000 | 0.063 | 
CC[C@@H](NCCC(N)=O)c1ccc(Cl)c(C(=O)c2ccc(N)nc2)c1F [Example 180, 3-{[(1R)-1-{3-[(6-Aminopyridin-3-yl)carbonyl]-4-chloro-2-fluorophenyl}propyl]amino}propanamide] | 270 | > 3000 | 0.14 | 
CC[C@@H](NCCC(N)=O)c1ccc(Cl)c(C(=O)c2cnc(N)cn2)c1F [Example 183, 3-{[(1R)-1-{3-[(5-Aminopyrazin-2-yl)carbonyl]-4-chloro-2-fluorophenyl}propyl]amino}propanamide] | 2200 | > 10000 | 0.5 | 
